Experiments:
[1] = tested on: NCI-H1650; test: Cell proliferation assay (CellTiter-Glo); assay type: cell-based, human; details: Homo sapiens, NCI-H1650, 72 h, NCI-H1650 cells, 20 μM to 0.009 μM in serial 3-fold dilutions
Method: (§1) All cells were obtained from the cell bank of the American Type Culture Collection (ATCC) and cultured in the supplier's recommended media supplemented with 10% FBS. The cell panel screen was measured using the CellTiter-Glo assay (Promega, Madison, WI) following a standard protocol. Briefly, cancer cells were seeded in 96-well plates and cultured overnight at 37°C with or without 5% CO2 in an incubator. Each compound was dissolved with limited DMSO and diluted to a certain concentration with culture medium and then added to the corresponding well of the cell plate. The final concentration of compound was 20 μM. The control cells (without treatment) received the same amount of DMSO and were incubated under the same conditions. After 72 h cultivation, 100 μL of the CellTiter-Glo reagent was added directly to each well for 10-minute incubation. The plate was then read on a FlexStation 3 microplate luminometer (Molecular Devices, USA) to monitor the luminescence signal generated by the luciferase-catalyzed reaction of luciferin and ATP. The percent of growth inhibition was calculated using the following formula: (untreated cells − treated cells)/(untreated cells − background without cells) ∗ 100.
(§2) For proliferation assays, the CellTiter-Glo assay (Promega, Madison, WI) was used to evaluate the proliferation of cancer cells treated with test compounds as described above. Each compound was dissolved in limited DMSO and diluted to various concentrations with culture medium and then added to the corresponding wells. A dose-response curve was plotted, and the IC50 was calculated using XLfit software.

[2] = tested on: A549; test: Cell proliferation assay (CellTiter-Glo); assay type: cell-based; details: Homo sapiens, A549 cells, 72 h
Method: as §1, §2

[3] = tested on: CHP212; test: Cell proliferation assay (CellTiter-Glo); assay type: cell-based; details: Homo sapiens, CHP-212, CHP212 cells, 72 h
Method: as §1, §2

[4] = tested on: NCI-H1993; test: Cell proliferation assay (CellTiter-Glo); assay type: cell-based; details: Homo sapiens, NCI-H1993 cells, 72 h
Method: as §1, §2

[5] = tested on: NCI-H838; test: Cell proliferation assay (CellTiter-Glo); assay type: cell-based; details: Homo sapiens, NCI-H838 cells, 72 h
Method: as §1, §2

[6] = tested on: SW1353; test: Cell proliferation assay (CellTiter-Glo); assay type: cell-based; details: Homo sapiens, SW1353 cells, 72 h
Method: as §1, §2

[7] = tested on: SW954; test: Cell proliferation assay (CellTiter-Glo); assay type: cell-based; details: Homo sapiens, SW 954, SW954 cells, 72 h
Method: as §1, §2

[8] = tested on: HuVec; test: Cell proliferation assay (CellTiter-Glo), control cell line; assay type: cell-based; details: Homo sapiens, 72 h
Method: as §1, §2

[9] = tested on: STAT3 activation in multiple cancer cell lines; set-up: method as in PMID 21490133; details: cited from earlier work
[10] = tested on: A498; test: Cell panel screen (CellTiter-Glo); assay type: cell-based, human; details: A498 (listed under Lung), 20 micromolar, 72 hrs
Outline: (§3)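 Values are % growth inhibition: the signal of treated wells was set against untreated (DMSO) wells, with cell-free wells as background. Treatment lasted 72 h at 20 μM final compound, and ATP content was read by luminescence.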

[11] = tested on: A704; test: Cell panel screen (CellTiter-Glo); assay type: cell-based, human; details: A704 (Kidney), 20 micromolar, 72 hrs
Outline: as §3

[12] = tested on: BT-474; test: Cell panel screen (CellTiter-Glo); assay type: cell-based, human; details: BT-474 (Breast), 20 micromolar, 72 hrs
Outline: as §3

[13] = tested on: BT-549; test: Cell panel screen (CellTiter-Glo); assay type: cell-based, human; details: BT-549 (Breast), 20 micromolar, 72 hrs
Outline: as §3

[14] = tested on: Bel-7402; test: Cell panel screen (CellTiter-Glo); assay type: cell-based, human; details: Bel-7402 (Liver), 20 micromolar, 72 hrs
Outline: as §3

[15] = tested on: C3A; test: Cell panel screen (CellTiter-Glo); assay type: cell-based, human; details: C3A (Liver), 20 micromolar, 72 hrs
Outline: as §3

[16] = tested on: C8166; test: Cell panel screen (CellTiter-Glo); assay type: cell-based, human; details: C8166 (Leukemia), 20 micromolar, 72 hrs
Outline: as §3

[17] = tested on: CCF-STTG1; test: Cell panel screen (CellTiter-Glo); assay type: cell-based, human; details: CCF-STTG1 (Brain), 20 micromolar, 72 hrs
Outline: as §3

[18] = tested on: CW-2; test: Cell panel screen (CellTiter-Glo); assay type: cell-based, human; details: CW-2 (Colon), 20 micromolar, 72 hrs
Outline: as §3

[19] = tested on: ChaGo-K-1; test: Cell panel screen (CellTiter-Glo); assay type: cell-based, human; details: ChaGo-K-1 (Lung), 20 micromolar, 72 hrs
Outline: as §3

[20] = tested on: Colo 205; test: Cell panel screen (CellTiter-Glo); assay type: cell-based, human; details: Colo 205, 20 micromolar, 72 hrs
Outline: as §3

[21] = tested on: HCC1395; test: Cell panel screen (CellTiter-Glo); assay type: cell-based, human; details: HCC1395 (Breast), 20 micromolar, 72 hrs
Outline: as §3

[22] = tested on: HCC1569; test: Cell panel screen (CellTiter-Glo); assay type: cell-based, human; details: HCC1569 (Breast), 20 micromolar, 72 hrs
Outline: as §3

[23] = tested on: HCC1599; test: Cell panel screen (CellTiter-Glo); assay type: cell-based, human; details: HCC1599 (Breast), 20 micromolar, 72 hrs
Outline: as §3

[24] = tested on: HCC1937; test: Cell panel screen (CellTiter-Glo); assay type: cell-based, human; details: HCC1937 (Breast), 20 micromolar, 72 hrs
Outline: as §3

[25] = tested on: HEC-1-A; test: Cell panel screen (CellTiter-Glo); assay type: cell-based, human; details: HEC-1-A (Uterus), 20 micromolar, 72 hrs
Outline: as §3

[26] = tested on: HGC-27; test: Cell panel screen (CellTiter-Glo); assay type: cell-based, human; details: HGC-27 (Stomach), 20 micromolar, 72 hrs
Outline: as §3

[27] = tested on: HPAF-II; test: Cell panel screen (CellTiter-Glo); assay type: cell-based, human; details: HPAF-II (Pancreas), 20 micromolar, 72 hrs
Outline: as §3

[28] = tested on: HT-1197; test: Cell panel screen (CellTiter-Glo); assay type: cell-based, human; details: HT-1197 (Urinary bladder), 20 micromolar, 72 hrs
Outline: as §3

[29] = tested on: J82; test: Cell panel screen (CellTiter-Glo); assay type: cell-based, human; details: J82 (Urinary bladder), 20 micromolar, 72 hrs
Outline: as §3

[30] = tested on: M059J; test: Cell panel screen (CellTiter-Glo); assay type: cell-based, human; details: M059J (Brain), 20 micromolar, 72 hrs
Outline: as §3

[31] = tested on: MSTO-211-H; test: Cell panel screen (CellTiter-Glo); assay type: cell-based, human; details: MSTO-211-H (Lung), 20 micromolar, 72 hrs
Outline: as §3

[32] = tested on: NCI-H1623; test: Cell panel screen (CellTiter-Glo); assay type: cell-based, human; details: NCI-H1623 (Lung), 20 micromolar, 72 hrs
Outline: as §3

[33] = tested on: NCI-H1694; test: Cell panel screen (CellTiter-Glo); assay type: cell-based, human; details: NCI-H1694 (Lung), 20 micromolar, 72 hrs
Outline: as §3

[34] = tested on: NCI-H1770; test: Cell panel screen (CellTiter-Glo); assay type: cell-based, human; details: NCI-H1770 (Lung), 20 micromolar, 72 hrs
Outline: as §3

[35] = tested on: NCI-H2347; test: Cell panel screen (CellTiter-Glo); assay type: cell-based, human; details: NCI-H2347 (Lung), 20 micromolar, 72 hrs
Outline: as §3

[36] = tested on: NCI-H2405; test: Cell panel screen (CellTiter-Glo); assay type: cell-based, human; details: NCI-H2405 (Lung), 20 micromolar, 72 hrs
Outline: as §3

[37] = tested on: NCI-H28; test: Cell panel screen (CellTiter-Glo); assay type: cell-based, human; details: NCI-H28 (Lung), 20 micromolar, 72 hrs
Outline: as §3

[38] = tested on: NCI-H524; test: Cell panel screen (CellTiter-Glo); assay type: cell-based, human; details: NCI-H524 (Lung), 20 micromolar, 72 hrs
Outline: as §3

[39] = tested on: Panc 03.27; test: Cell panel screen (CellTiter-Glo); assay type: cell-based, human; details: Panc 03.27 (Pancreas), 20 micromolar, 72 hrs
Outline: as §3

[40] = tested on: RL95; test: Cell panel screen (CellTiter-Glo); assay type: cell-based, human; details: RL95 (Uterus), 20 micromolar, 72 hrs
Outline: as §3

[41] = tested on: SW13; test: Cell panel screen (CellTiter-Glo); assay type: cell-based, human; details: SW13 (Adrenal gland), 20 micromolar, 72 hrs
Outline: as §3

[42] = tested on: T47D; test: Cell panel screen (CellTiter-Glo); assay type: cell-based, human; details: T47D (Breast), 20 micromolar, 72 hrs
Outline: as §3

[43] = tested on: T98G; test: Cell panel screen (CellTiter-Glo); assay type: cell-based, human; details: T98G (Brain), 20 micromolar, 72 hrs
Outline: as §3

[44] = tested on: TCCSUP; test: Cell panel screen (CellTiter-Glo); assay type: cell-based, human; details: TCCSUP (Urinary bladder), 20 micromolar, 72 hrs
Outline: as §3

[45] = tested on: ZR-75-30; test: Cell panel screen (CellTiter-Glo); assay type: cell-based, human; details: ZR-75-30 (Breast), 20 micromolar, 72 hrs
Outline: as §3

In the case of `CN[C@@H]1C[C@H]2O[C@@](C)([C@@H]1OC)n1c3ccccc3c3c4c(c5c6ccccc6n2c5c31)C(=O)NC4` [Staurosporine, staurosporine, reference compound], the IC50 [1] is reported as 22 ± 4 nM, the IC50 [2] is reported as 8 ± 2 nM and the IC50 [3] is reported as 4 ± 1 nM. It also gave an IC50 [4] of 21 ± 7 nM, an IC50 [5] of 11 ± 4 nM and an IC50 [6] of 4 ± 1 nM. The IC50 [7] was 6 ± 1 nM and the IC50 [8] was 4 ± 2 nM.

For `CC(C)=CCC[C@]1(C)C=Cc2c(O)c3c(c(CC=C(C)C)c2O1)O[C@]12C(=C[C@@H]4C[C@H]1C(C)(C)O[C@@]2(C/C=C(/C)C(=O)O)C4=O)C3=O` [gambogic acid], the “STAT3 activation upon IL-6 treatment” value [9] is listed as “able to inhibit STAT3 activation”.

With Bannaxanthone E [bn-3] the “Percent Inhibition” value [10] was 96%, the “Percent Inhibition” value [11] was 98% and the “Percent Inhibition” value [12] was 90%. The “Percent Inhibition” value [13] was 97%, the “Percent Inhibition” value [14] was 98% and the “Percent Inhibition” value [15] was 78%. For the same compound, the “Percent Inhibition” value [16] was 98%, the “Percent Inhibition” value [17] was 93% and the “Percent Inhibition” value [18] was 99%. For the same compound, the “Percent Inhibition” value [19] was 97%, the “Percent Inhibition” value [20] was 99% and the “Percent Inhibition” value [21] was 98%. The “Percent Inhibition” value [22] was 97%, the “Percent Inhibition” value [23] was 98% and the “Percent Inhibition” value [24] was 98%. For the same compound, the “Percent Inhibition” value [25] was 88%, the “Percent Inhibition” value [26] was 98% and the “Percent Inhibition” value [27] was 92%. The “Percent Inhibition” value [28] was 98%, the “Percent Inhibition” value [29] was 98% and the “Percent Inhibition” value [30] was 97%. For the same compound, the “Percent Inhibition” value [31] was 98%, the “Percent Inhibition” value [32] was 95% and the “Percent Inhibition” value [33] was 99%. The “Percent Inhibition” value [34] was 98%, the “Percent Inhibition” value [35] was 89% and the “Percent Inhibition” value [36] was 96%. For the same compound, the “Percent Inhibition” value [37] was 95%, the “Percent Inhibition” value [38] was 99% and the “Percent Inhibition” value [39] was 92%. For the same compound, the “Percent Inhibition” value [40] was 98%, the “Percent Inhibition” value [41] was 98% and the “Percent Inhibition” value [42] was 96%. For the same compound, the “Percent Inhibition” value [43] was 99%, the “Percent Inhibition” value [44] was 96% and the “Percent Inhibition” value [45] was 99%.

For Bannaxanthone G [bn-21], the “Percent Inhibition” value [10] was 60%, the “Percent Inhibition” value [11] was 64% and the “Percent Inhibition” value [12] was 88%. The “Percent Inhibition” value [13] was 70%, the “Percent Inhibition” value [14] was 93% and the “Percent Inhibition” value [15] was 62%. The “Percent Inhibition” value [16] was 90%, the “Percent Inhibition” value [17] was 68% and the “Percent Inhibition” value [18] was 99%. The “Percent Inhibition” value [19] was 95%, the “Percent Inhibition” value [20] was 100% and the “Percent Inhibition” value [21] was 95%. For the same compound, the “Percent Inhibition” value [22] was 76%, the “Percent Inhibition” value [23] was 97% and the “Percent Inhibition” value [24] was 92%. The “Percent Inhibition” value [25] was 71%, the “Percent Inhibition” value [26] was 84% and the “Percent Inhibition” value [27] was 84%. The “Percent Inhibition” value [28] was 91%, the “Percent Inhibition” value [29] was 88% and the “Percent Inhibition” value [30] was 94%. For the same compound, the “Percent Inhibition” value [31] was 90%, the “Percent Inhibition” value [32] was 72% and the “Percent Inhibition” value [33] was 100%. For the same compound, the “Percent Inhibition” value [34] was 94%, the “Percent Inhibition” value [35] was 75% and the “Percent Inhibition” value [36] was 80%. For the same compound, the “Percent Inhibition” value [37] was 73%, the “Percent Inhibition” value [38] was 100% and the “Percent Inhibition” value [39] was 95%. For the same compound, the “Percent Inhibition” value [40] was 88%, the “Percent Inhibition” value [41] was 92% and the “Percent Inhibition” value [42] was 64%. For the same compound, the “Percent Inhibition” value [43] was 77%, the “Percent Inhibition” value [44] was 84% and the “Percent Inhibition” value [45] was 99%.

Reference: paper PMC4450297, “Screening Active Compounds from Garcinia Species Native to China Reveals Novel Compounds Targeting the STAT/JAK Signaling Pathway” (BioMed Research International, 2015)
